# According to US20150352108A1, “AMINO-PYRIMIDINE COMPOUNDS AS INHIBITORS OF TBK1 AND/OR IKK EPSILON” (Alzheimer's Institute of America, priority 2009, published 2015):
# Key:
# [1] = molecular target: T1, IKKε (Homo sapiens, UniProt Q14164); experiment: In-vitro IKKε kinase assay ([γ33]ATP filter-plate); assay type: biochemical; conditions: text bins; read-out: IC50 for inhibition of the kinase activity of IKKε
# T1 construct: His-tag; made in house; host or cells: Sf9 insect cells
# T1 sequence (Q14164 1-716): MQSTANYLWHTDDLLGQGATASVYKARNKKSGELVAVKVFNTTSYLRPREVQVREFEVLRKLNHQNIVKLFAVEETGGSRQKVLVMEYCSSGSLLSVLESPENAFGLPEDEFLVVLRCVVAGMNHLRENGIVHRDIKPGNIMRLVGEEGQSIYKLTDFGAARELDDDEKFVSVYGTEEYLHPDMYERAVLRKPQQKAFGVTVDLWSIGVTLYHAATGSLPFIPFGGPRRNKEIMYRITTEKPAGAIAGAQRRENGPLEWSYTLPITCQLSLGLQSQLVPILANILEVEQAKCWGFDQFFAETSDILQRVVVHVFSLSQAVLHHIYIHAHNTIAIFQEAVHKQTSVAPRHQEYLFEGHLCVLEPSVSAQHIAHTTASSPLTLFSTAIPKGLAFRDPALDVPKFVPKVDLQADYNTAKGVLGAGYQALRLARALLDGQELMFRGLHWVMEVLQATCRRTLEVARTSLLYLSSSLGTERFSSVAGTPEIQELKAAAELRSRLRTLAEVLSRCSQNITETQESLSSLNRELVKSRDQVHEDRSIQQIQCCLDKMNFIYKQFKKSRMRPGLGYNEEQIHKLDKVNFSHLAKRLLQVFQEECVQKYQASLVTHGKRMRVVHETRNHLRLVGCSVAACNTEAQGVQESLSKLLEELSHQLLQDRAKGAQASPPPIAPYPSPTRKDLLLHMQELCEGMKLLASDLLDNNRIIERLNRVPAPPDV
# How it was run: (§1)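 Phosphorylation of casein or myelin basic protein was counted by P-81 filter capture after 30-45 min reactions stopped with phosphoric acid, with counts normalized to DMSO after background subtraction. ATP was twice Km: 60 μM for TBK1 and 32 μM for IKKε, plus [γ33]ATP. Sf9-expressed His-tag enzymes were used at normal/sensitized levels of 0.1/0.02 μg/ml (TBK1) and 0.1/0.015 μg/ml (IKKε).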
# [2] = molecular target: T2, TBK1 (Homo sapiens, UniProt Q9UHD2); experiment: In-vitro TBK1 kinase assay ([γ33]ATP filter-plate); assay type: biochemical; conditions: text bins; read-out: IC50 for inhibition of the kinase activity of TBK1
# T2 construct: His-tag; made in house; host or cells: Sf9 insect cells
# T2 sequence (Q9UHD2 1-729): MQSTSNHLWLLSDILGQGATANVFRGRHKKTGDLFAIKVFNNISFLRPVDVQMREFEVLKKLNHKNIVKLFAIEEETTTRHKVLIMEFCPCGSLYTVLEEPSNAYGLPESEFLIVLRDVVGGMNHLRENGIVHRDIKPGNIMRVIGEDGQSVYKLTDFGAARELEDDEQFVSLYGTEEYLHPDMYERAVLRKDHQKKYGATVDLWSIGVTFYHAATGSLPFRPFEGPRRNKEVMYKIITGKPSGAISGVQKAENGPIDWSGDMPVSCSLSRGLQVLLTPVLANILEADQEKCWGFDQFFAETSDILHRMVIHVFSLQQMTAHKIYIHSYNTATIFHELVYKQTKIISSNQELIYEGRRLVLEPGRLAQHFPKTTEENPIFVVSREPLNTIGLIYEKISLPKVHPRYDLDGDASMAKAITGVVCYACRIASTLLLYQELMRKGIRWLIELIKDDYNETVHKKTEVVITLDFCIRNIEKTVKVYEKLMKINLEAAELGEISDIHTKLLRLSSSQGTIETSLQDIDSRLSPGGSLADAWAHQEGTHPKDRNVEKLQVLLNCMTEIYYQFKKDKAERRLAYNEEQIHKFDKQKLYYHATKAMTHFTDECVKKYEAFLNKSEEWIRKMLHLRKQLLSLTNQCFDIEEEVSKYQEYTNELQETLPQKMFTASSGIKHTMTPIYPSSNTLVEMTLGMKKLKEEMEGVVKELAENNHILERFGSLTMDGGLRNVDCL
# How it was run: as §1
IC50 [1],IC50 [2],Compound
50 to 500 nM,10 to 100 nM,"N#Cc1cccc(-c2ccnc(Nc3ccc(N4CCOCC4)cc3)n2)c1 [compound 322, 3-(2-{[4-(Morpholin-4-yl)phenyl]amino}pyrimidin-4-yl)benzonitrile]"
5 to 50 nM,10 to 100 nM,"COC(=O)c1ccc(Nc2nccc(-c3ccc(OC4CCN(C(=O)[C@H](C)O)CC4)c(C#N)c3)n2)cc1OC [compound 324, methyl 4-({4-[3-cyano-4-({1-[(2S)-2-hydroxypropanoyl]piperidin-4-yl}oxy)phenyl]pyrimidin-2-yl}amino)-2-methoxybenzoate]"
< 5 nM,< 10 nM,"COc1cc(Nc2nccc(-c3ccc(O)c(C#N)c3)n2)ccc1N1CCNC(=O)C1 [compound 326, 2-Hydroxy-5-(2-{[3-methoxy-4-(3-oxopiperazin-1-yl)phenyl]amino}pyrimidin-4-yl)benzonitrile]"
5 to 50 nM,10 to 100 nM,"COc1ccc(Nc2nccc(-c3ccc(OC)c(C#N)c3)n2)cc1Cl [compound 327, 5-{2-[(3-Chloro-4-methoxyphenyl)amino]pyrimidin-4-yl}-2-methoxybenzonitrile]"
< 5 nM,< 10 nM,"N#Cc1cc(-c2ccnc(Nc3ccc(N4CCOCC4)c(C4CC4)c3)n2)ccc1OC1CCOCC1 [compound 329, 5-(2-{[3-cyclopropyl-4-(morpholin-4-yl)phenyl]amino}pyrimidin-4-yl)-2-(tetrahydro-2H-pyran-4-yloxy)benzonitrile]"
< 5 nM,< 10 nM,"C[C@H](O)C(=O)N1CCC(Oc2ccc(-c3ccnc(Nc4ccc(C(=O)N(C)CCN(C)C)cc4)n3)cc2C#N)CC1 [compound 331, 4-({4-[3-cyano-4-({1-[(2S)-2-hydroxypropanoyl]piperidin-4-yl}oxy)phenyl]pyrimidin-2-yl}amino)-N-[2-(dimethylamino)ethyl]-N-methylbenzamide]"
5 to 50 nM,10 to 100 nM,"COc1cc(NC(=O)NC2CCCC2)cc(Nc2nccc(-c3ccc(OC)c(C#N)c3)n2)c1 [compound 332, 1-(3-{[4-(3-Cyano-4-methoxyphenyl)pyrimidin-2-yl]amino}-5-methoxyphenyl)-3-cyclopentylurea]"
< 5 nM,< 10 nM,"CC(C)Oc1ccc(-c2ccnc(Nc3ccc(N4CCN(C)CC4)cc3)n2)cc1C#N [compound 335, 5-(2-{[4-(4-Methylpiperazin-1-yl)phenyl]amino}pyrimidin-4-yl)-2-(propan-2-yloxy)benzonitrile]"
5 to 50 nM,10 to 100 nM,"COc1ccc(-c2ccnc(Nc3ccc(CN4CCN(C)CC4)cc3)n2)cc1C#N [compound 337, 2-Methoxy-5-[2-({4-[(4-methylpiperazin-1-yl)methyl]phenyl}amino)pyrimidin-4-yl]benzonitrile]"
< 5 nM,< 10 nM,"COc1ccc(-c2ccnc(Nc3cc(OC)c(OC)c(OC)c3)n2)cc1C#N [compound 341, 2-methoxy-5-{2-[(3,4,5-trimethoxyphenyl)amino]pyrimidin-4-yl}benzonitrile]"
5 to 50 nM,< 10 nM,"COC(=O)c1ccc(Nc2nccc(-c3ccc(OC4CCN(C(=O)[C@H](C)O)CC4)c(C#N)c3)n2)cc1 [compound 342, methyl 4-({4-[3-cyano-4-({1-[(2S)-2-hydroxypropanoyl]piperidin-4-yl}oxy)phenyl]pyrimidin-2-yl}amino)benzoate]"
5 to 50 nM,< 10 nM,"COc1cc(NC(=O)NC[C@@H](C)O)cc(Nc2nccc(-c3ccc(OC)c(C#N)c3)n2)c1 [compound 343, 1-(3-{[4-(3-Cyano-4-methoxyphenyl)pyrimidin-2-yl]amino}-5-methoxyphenyl)-3-[(2R)-2-hydroxypropyl]urea]"
5 to 50 nM,10 to 100 nM,"COc1cc(NC(=O)NC2CCN(C(C)=O)CC2)cc(Nc2nccc(-c3ccc(OC)c(C#N)c3)n2)c1 [compound 344, 1-(1-Acetylpiperidin-4-yl)-3-(3-{[4-(3-cyano-4-methoxyphenyl)pyrimidin-2-yl]amino}-5-methoxyphenyl)urea]"
5 to 50 nM,10 to 100 nM,"COc1ccc(-c2ccnc(Nc3cccc(S(N)(=O)=O)c3)n2)cc1C#N [compound 346, 3-{[4-(3-Cyano-4-methoxyphenyl)pyrimidin-2-yl]amino} benzenesulfonamide]"
50 to 500 nM,100 to 500 nM,"COc1cc(Nc2nccc(-c3cccc(C#N)c3)n2)cc(OC)c1 [compound 347, 3-{2-[(3,5-Dimethoxyphenyl)amino]pyrimidin-4-yl}benzonitrile]"
5 to 50 nM,10 to 100 nM,"COc1cc(NC(=O)N2CCCC(O)C2)cc(Nc2nccc(-c3ccc(OC)c(C#N)c3)n2)c1 (centres unmarked) [compound 353, N-(3-{[4-(3-Cyano-4-methoxyphenyl)pyrimidin-2-yl]amino}-5-methoxyphenyl)-3-hydroxypiperidine-1-carboxamide]"
5 to 50 nM,10 to 100 nM,"COc1cc(NC(=O)c2cccnc2)cc(Nc2nccc(-c3ccc(OC)c(C#N)c3)n2)c1 [compound 356, N-(3-{[4-(3-Cyano-4-methoxyphenyl)pyrimidin-2-yl]amino}-5-methoxyphenyl) pyridine-3-carboxamide]"
5 to 50 nM,10 to 100 nM,"COc1cc(N)cc(Nc2nccc(-c3ccc(OC)c(C#N)c3)n2)c1 [compound 358, 5-{2-[(3-Amino-5-methoxyphenyl)amino]pyrimidin-4-yl}-2-methoxybenzonitrile]"
5 to 50 nM,10 to 100 nM,"COc1cc(NC(=O)NC[C@H](C)O)cc(Nc2nccc(-c3ccc(OC)c(C#N)c3)n2)c1 [compound 359, 1-(3-{[4-(3-Cyano-4-methoxyphenyl)pyrimidin-2-yl]amino}-5-methoxyphenyl)-3-[(2S)-2-hydroxypropyl]urea]"
5 to 50 nM,10 to 100 nM,"COc1ccc(-c2ccnc(Nc3ccc(NC(C)=O)cc3)n2)cc1C#N [compound 361, N-(4-{[4-(3-Cyano-4-methoxyphenyl)pyrimidin-2-yl]amino}phenyl) acetamide]"
5 to 50 nM,< 10 nM,"N#Cc1cc(-c2ccnc(Nc3ccc(S(=O)(=O)N4CCOCC4)cc3)n2)ccc1OC1CCOCC1 [compound 363, 5-(2-{[4-(morpholin-4-ylsulfonyl)phenyl]amino}pyrimidin-4-yl)-2-(tetrahydro-2H-pyran-4-yloxy)benzonitrile]"
5 to 50 nM,10 to 100 nM,"COc1ccc(-c2ccnc(Nc3ccc(S(=O)(=O)NCCN)c(OC)c3)n2)cc1C#N [compound 366, N-(2-Aminoethyl)-4-{[4-(3-cyano-4-methoxyphenyl)pyrimidin-2-yl]amino}-2-methoxybenzene-sulfonamide]"
< 5 nM,< 10 nM,"C[C@H](O)C(=O)N1CCC(Oc2ccc(-c3ccnc(Nc4ccc(C(=O)NCCN(C)C)cc4)n3)cc2C#N)CC1 [compound 367, 4-({4-[3-cyano-4-({1-[(2S)-2-hydroxypropanoyl]piperidin-4-yl}oxy)phenyl]pyrimidin-2-yl}amino)-N-[2-(dimethylamino)ethyl]benzamide]"
5 to 50 nM,10 to 100 nM,"COc1ccc(-c2ccnc(Nc3ccc(OC)c(OCCN4CCOCC4)c3)n2)cc1C#N [compound 368, 2-Methoxy-5-[2-({4-methoxy-3-[2-(morpholin-4-yl)ethoxy]phenyl}amino)pyrimidin-4-yl]benzonitrile]"
< 5 nM,< 10 nM,"COc1ccc(-c2ccnc(Nc3ccc(N4CCNC(=O)C4)c(OC)c3)n2)cc1C#N [compound 370, 2-Methoxy-5-(2-{[3-methoxy-4-(3-oxopiperazin-1-yl)phenyl]amino}pyrimidin-4-yl)benzonitrile]"
